molecular target: T1, GlyT1 (Homo sapiens, UniProt P48067); assay: Glycine Transporter 1 (GlyT1) uptake assay, scintillation proximity assay of [14C]-glycine uptake; format: cell-based; conditions: SPA, four parameter logistic fit, read-out: GlyT1 (pIC50) (converted)
T1 construct: expressed in transfected cells
T1 sequence (P48067 1-706): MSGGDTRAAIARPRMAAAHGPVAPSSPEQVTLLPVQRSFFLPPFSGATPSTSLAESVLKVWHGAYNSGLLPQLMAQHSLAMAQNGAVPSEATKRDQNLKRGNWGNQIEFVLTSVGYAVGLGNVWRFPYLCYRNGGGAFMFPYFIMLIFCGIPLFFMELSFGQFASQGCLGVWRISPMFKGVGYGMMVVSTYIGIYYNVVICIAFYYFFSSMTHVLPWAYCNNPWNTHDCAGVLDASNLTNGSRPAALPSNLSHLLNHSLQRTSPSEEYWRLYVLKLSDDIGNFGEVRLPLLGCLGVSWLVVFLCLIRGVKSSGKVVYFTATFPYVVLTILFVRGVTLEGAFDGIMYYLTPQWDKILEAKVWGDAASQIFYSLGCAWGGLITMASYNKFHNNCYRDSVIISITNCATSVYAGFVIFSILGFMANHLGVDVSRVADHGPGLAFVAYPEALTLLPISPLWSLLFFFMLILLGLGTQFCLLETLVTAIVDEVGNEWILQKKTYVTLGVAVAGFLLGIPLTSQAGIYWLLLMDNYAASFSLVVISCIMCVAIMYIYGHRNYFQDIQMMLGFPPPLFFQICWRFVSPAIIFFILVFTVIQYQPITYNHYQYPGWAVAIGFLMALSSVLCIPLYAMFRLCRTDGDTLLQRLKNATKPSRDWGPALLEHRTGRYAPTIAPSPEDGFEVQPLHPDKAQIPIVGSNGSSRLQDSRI
Outline: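 IC50 values derive from four-parameter logistic curves fitted to dose-response data. Uptake of [14C]-glycine measured in scintillation proximity format.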

| IC50 [nM] | SMILES |
| --- | --- |
| < 100 | CCS(=O)(=O)c1ccc(O[C@@H](C)C(F)(F)F)c(C(=O)N2Cc3cn(-c4cccc(C)c4F)nc3C2)c1 [Example 78, 5-[5-(Ethanesulfonyl)-2-{[(2S)-1 1 1-trifluoropropan-2-yl]oxy}benzoyl]-2-(2-fluoro-3-methylphenyl)-2H 4H 5H 6H-pyrrolo[3,4-c]pyrazole] |
| < 100 | CCS(=O)(=O)c1ccc(O[C@@H](C)C(F)(F)F)c(C(=O)N2Cc3cn(-c4ccc(F)c(C(F)F)c4)nc3C2)c1 [Example 79, 2-[3-(Difluoromethyl)-4-fluorophenyl]-5-[5-(ethanesulfonyl)-2-{[(2S)-1 1 1-trifluoropropan-2-yl]oxy}benzoyl]-2H 4H 5H 6H-pyrrolo[3,4-c]pyrazole] |
| < 100 | CCS(=O)(=O)c1ccc(O[C@@H](C)C(F)(F)F)c(C(=O)N2Cc3cn(-c4ccccc4F)nc3C2)c1 [Example 80, 5-[5-(Ethanesulfonyl)-2-{[(2S)-1 1 1-trifluoropropan-2-yl]oxy}benzoyl]-2-(2-fluorophenyl)-2H 4H 5H 6H-pyrrolo[3,4-c]pyrazole] |
| 100 to 1000 | CCS(=O)(=O)c1ccc(OC(C)C)c(C(=O)N2Cc3cn(-c4ccc(F)cc4F)nc3C2)c1 [Example 81, 2-(2 4-Difluorophenyl)-5-[5-(ethanesulfonyl)-2-(propan-2-yloxy)benzoyl]-2H 4H 5H 6H-pyrrolo[3,4-c]pyrazole] |
| < 100 | CCS(=O)(=O)c1ccc(OC(C)C)c(C(=O)N2Cc3cn(-c4ccc(F)c(C(F)F)c4)nc3C2)c1 [Example 82, 2-[3-(Difluoromethyl)-4-fluorophenyl]-5-[5-(ethanesulfonyl)-2-(propan-2-yloxy)benzoyl]-2H 4H 5H 6H-pyrrolo[3,4-c]pyrazole] |
| < 100 | CCS(=O)(=O)c1ccc(OC(C)C)c(C(=O)N2Cc3cn(-c4cccc(C)c4)nc3C2)c1 [Example 83, 5-[5-(Ethanesulfonyl)-2-(propan-2-yloxy)benzoyl]-2-(3-methylphenyl)-2H 4H 5H 6H-pyrrolo[3,4-c]pyrazole] |
| < 100 | CCS(=O)(=O)c1ccc(OC(C)C)c(C(=O)N2Cc3cn(-c4ccc(F)cc4)nc3C2)c1 [Example 84, 5-[5-(Ethanesulfonyl)-2-(propan-2-yloxy)benzoyl]-2-(4-fluorophenyl)-2H 4H 5H 6H-pyrrolo[3,4-c]pyrazole] |
| < 100 | Cc1cccc(-n2cc3c(n2)CN(C(=O)c2cc(S(C)(=O)=O)ccc2OC(C)C)C3)c1 [Example 85, 5-[5-Methanesulfonyl-2-(propan-2-yloxy)benzoyl]-2-(3-methylphenyl)-2H 4H 5H 6H-pyrrolo[3,4-c]pyrazole] |
| 100 to 1000 | CC(C)S(=O)(=O)c1ccc(O[C@@H](C)C(F)(F)F)c(C(=O)N2Cc3cn(-c4cccc(C(F)(F)F)c4F)nc3C2)c1 [Example 86, 2-[2-Fluoro-3-(trifluoromethyl)phenyl]-5-[5-(propane-2-sulfonyl)-2-{[(2S)-1 1 1-trifluoropropan-2-yl]oxy}benzoyl]-2H 4H 5H 6H-pyrrolo[3,4-c]pyrazole] |
| 100 to 1000 | Cc1cccc(-n2cc3c(n2)CN(C(=O)c2cc(S(=O)(=O)C(C)C)ccc2O[C@@H](C)C(F)(F)F)C3)c1F [Example 87, 2-(2-Fluoro-3-methylphenyl)-5-[5-(propane-2-sulfonyl)-2-{[(2S)-1 1 1-trifluoropropan-2-yl]oxy}benzoyl]-2H 4H 5H 6H-pyrrolo[3,4-c]pyrazole] |
| 100 to 1000 | CC(C)S(=O)(=O)c1ccc(O[C@@H](C)C(F)(F)F)c(C(=O)N2Cc3cn(-c4ccccc4F)nc3C2)c1 [Example 88, 2-(2-Fluorophenyl)-5-[5-(propane-2-sulfonyl)-2-{[(2S)-1 1 1-trifluoropropan-2-yl]oxy}benzoyl]-2H 4H 5H 6H-pyrrolo[3,4-c]pyrazole] |
| 100 to 1000 | Cc1cccc(-n2cc3c(n2)CN(C(=O)c2cc(S(=O)(=O)C(C)C)ccc2O[C@@H](C)C(F)(F)F)C3)c1 [Example 89, 2-(3-Methylphenyl)-5-[5-(propane-2-sulfonyl)-2-{[(2S)-1 1 1-trifluoropropan-2-yl]oxy}benzoyl]-2H 4H 5H 6H-pyrrolo[3,4-c]pyrazole] |
| 100 to 1000 | CC(C)S(=O)(=O)c1ccc(O[C@@H](C)C(F)(F)F)c(C(=O)N2Cc3cn(-c4ccccc4)nc3C2)c1 [Example 90, 2-Phenyl-5-[5-(propane-2-sulfonyl)-2-{[(2S)-1 1 1-trifluoropropan-2-yl]oxy}benzoyl]-2H 4H 5H 6H-pyrrolo[3,4-c]pyrazole] |
| 100 to 1000 | CC(C)S(=O)(=O)c1ccc(O[C@@H](C)C(F)(F)F)c(C(=O)N2Cc3cn(-c4ccc(F)cc4)nc3C2)c1 [Example 91, 2-(4-Fluorophenyl)-5-[5-(propane-2-sulfonyl)-2-{[(2S)-1 1 1-trifluoropropan-2-yl]oxy}benzoyl]-2H 4H 5H 6H-pyrrolo[3,4-c]pyrazole] |
| 100 to 1000 | CC(C)S(=O)(=O)c1ccc(O[C@@H](C)C(F)(F)F)c(C(=O)N2Cc3cn(-c4ccc(F)c(F)c4)nc3C2)c1 [Example 92, 2-(3 4-Difluorophenyl)-5-[5-(propane-2-sulfonyl)-2-{[(2S)-1 1 1-trifluoropropan-2-yl]oxy}benzoyl]-2H 4H 5H 6H-pyrrolo[3,4-c]pyrazole] |
| 1000 to 10000 | CC(C)Oc1ccc(S(=O)(=O)C(C)C)cc1C(=O)N1Cc2cn(-c3cccc(C(F)(F)F)c3F)nc2C1 [Example 93, 2-[2-Fluoro-3-(trifluoromethyl)phenyl]-5-[2-(propan-2-yloxy)-5-(propane-2-sulfonyl)benzoyl]-2H 4H 5H 6H-pyrrolo[3,4-c]pyrazole] |
| 1000 to 10000 | Cc1cccc(-n2cc3c(n2)CN(C(=O)c2cc(S(=O)(=O)C(C)C)ccc2OC(C)C)C3)c1F [Example 94, 2-(2-Fluoro-3-methylphenyl)-5-[2-(propan-2-yloxy)-5-(propane-2-sulfonyl)benzoyl]-2H 4H 5H 6H-pyrrolo[3,4-c]pyrazole] |
| 1000 to 10000 | CC(C)Oc1ccc(S(=O)(=O)C(C)C)cc1C(=O)N1Cc2cn(-c3ccccc3F)nc2C1 [Example 95, 2-(2-Fluorophenyl)-5-[2-(propan-2-yloxy)-5-(propane-2-sulfonyl)benzoyl]-2H 4H 5H 6H-pyrrolo[3,4-c]pyrazole] |
| 1000 to 10000 | Cc1cccc(-n2cc3c(n2)CN(C(=O)c2cc(S(=O)(=O)C(C)C)ccc2OC(C)C)C3)c1 [Example 96, 2-(3-Methylphenyl)-5-[2-(propan-2-yloxy)-5-(propane-2-sulfonyl)benzoyl]-2H 4H 5H 6H-pyrrolo[3,4-c]pyrazole] |
| 1000 to 10000 | CC(C)Oc1ccc(S(=O)(=O)C(C)C)cc1C(=O)N1Cc2cn(-c3ccccc3)nc2C1 [Example 97, 2-Phenyl-5-[2-(propan-2-yloxy)-5-(propane-2-sulfonyl)benzoyl]-2H 4H 5H 6H-pyrrolo[3,4-c]pyrazole] |
| 100 to 1000 | CC(C)Oc1ccc(S(=O)(=O)C(C)C)cc1C(=O)N1Cc2cn(-c3ccc(F)cc3)nc2C1 [Example 98, 2-(4-Fluorophenyl)-5-[2-(propan-2-yloxy)-5-(propane-2-sulfonyl)benzoyl]-2H 4H 5H 6H-pyrrolo[3,4-c]pyrazole] |
| 100 to 1000 | CC(C)Oc1ccc(S(=O)(=O)C(C)C)cc1C(=O)N1Cc2cn(-c3ccc(F)c(F)c3)nc2C1 [Example 99, 2-(3 4-Difluorophenyl)-5-[2-(propan-2-yloxy)-5-(propane-2-sulfonyl)benzoyl]-2H 4H 5H 6H-pyrrolo[3,4-c]pyrazole] |
| < 100 | Cc1cc(-n2cc3c(n2)CN(C(=O)c2cc(S(C)(=O)=O)ccc2N2CCC(F)(F)CC2)C3)ccn1 [Example 101, 4-{5-[2-(4 4-Difluoropiperidin-1-yl)-5-methanesulfonylbenzoyl]-2H 4H 5H 6H-pyrrolo[3,4-c]pyrazol-2-yl}-2-methylpyridine] |
| < 100 | CS(=O)(=O)c1ccc(OCC(F)(F)F)c(C(=O)N2Cc3cn(-c4ccccc4)nc3C2)c1 [Example 102, 5-[5-Methanesulfonyl-2-(2 2 2-trifluoroethoxy)benzoyl]-2-phenyl-2H 4H 5H 6H-pyrrolo[3,4-c]pyrazole] |
| < 100 | CS(=O)(=O)c1ccc(OCC(F)(F)F)c(C(=O)N2Cc3cn(-c4ccc(F)cc4)nc3C2)c1 [Example 103, 2-(4-Fluorophenyl)-5-[5-methanesulfonyl-2-(2 2 2-trifluoroethoxy)benzoyl]-2H 4H 5H 6H-pyrrolo[3,4-c]pyrazole] |
| < 100 | CS(=O)(=O)c1ccc(OCC(F)(F)F)c(C(=O)N2Cc3cn(-c4ccccc4F)nc3C2)c1 [Example 104, 2-(2-Fluorophenyl)-5-[5-methanesulfonyl-2-(2 2 2-trifluoroethoxy)benzoyl]-2H 4H 5H 6H-pyrrolo[3,4-c]pyrazole] |
| < 100 | Cc1cccc(-n2cc3c(n2)CN(C(=O)c2cc(S(C)(=O)=O)ccc2OCC(F)(F)F)C3)c1 [Example 105, 5-[5-Methanesulfonyl-2-(2 2 2-trifluoroethoxy)benzoyl]-2-(3-methylphenyl)-2H 4H 5H 6H-pyrrolo[3,4-c]pyrazole] |
| < 100 | Cc1cccc(-n2cc3c(n2)CN(C(=O)c2cc(S(C)(=O)=O)ccc2OCC(F)(F)F)C3)c1F [Example 106, 2-(2-Fluoro-3-methylphenyl)-5-[5-methanesulfonyl-2-(2 2 2-trifluoroethoxy)benzoyl]-2H 4H 5H 6H-pyrrolo[3,4-c]pyrazole] |
